Each structure is given as a SMILES string. Counter-ions that a name gives are not always drawn. Like-named read-outs stand apart in the source and are kept apart here.

We go through 29 compounds from US4292321A, “1,3,8-Triazaspirodecane-4-ones, pharmaceutical compositions thereof and method of use thereof” (Warner-Lambert Company, priority 1980, dated 1981).

The assay has as its target T1, dopamine receptor (Bos taurus, UniProt P20288).
T1 construct: from tissue
The experiment in a line: 3H-haloperidol receptor binding assay (HRBA). The following applies: for inhibition at 0.01 µM / inhibition at 0.1 µM / inhibition at 0.001 µM: read-out: inhibition of 3H-haloperidol binding. The source says: The compounds of this invention are useful because of their valuable pharmacological properties. […] As with other known neuroleptics, the compounds of this invention readily displace ^3 H-haloperidol from dopamine receptor binding sights in the ^3 H-haloperidol receptor binding assay (HRBA). […] The HRBA screen is described by I. Creese, D. R. Burt and S. H. Snyder, Science 142: 480 (1976) and by B. Seeman, T. Lee, M. Chani-Wong and K. Wong, Nature 261: 717 […].

T1 sequence (P20288 whole entry): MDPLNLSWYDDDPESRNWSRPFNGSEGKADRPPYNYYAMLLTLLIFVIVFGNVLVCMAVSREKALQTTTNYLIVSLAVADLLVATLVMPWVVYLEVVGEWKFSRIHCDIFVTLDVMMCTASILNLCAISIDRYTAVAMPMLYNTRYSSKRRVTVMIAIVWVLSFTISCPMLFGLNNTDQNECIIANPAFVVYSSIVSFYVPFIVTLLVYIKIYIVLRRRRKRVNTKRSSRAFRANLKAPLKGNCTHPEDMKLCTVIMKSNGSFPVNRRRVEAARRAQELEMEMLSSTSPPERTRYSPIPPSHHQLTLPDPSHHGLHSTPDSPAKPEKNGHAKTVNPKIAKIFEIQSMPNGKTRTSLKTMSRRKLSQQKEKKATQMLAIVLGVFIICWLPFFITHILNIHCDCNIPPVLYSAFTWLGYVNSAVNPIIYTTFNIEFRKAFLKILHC

Turning to `O=C1NCN(c2ccccc2)C12CCN(CCCN(c1ccc(F)cc1)c1ccc(F)cc1)CC2` [Example 1, 8-[3-(Bis-[4-fluorophenyl]amino)propyl]-1-phenyl-1,3,8-triazaspiro[4,5]decan-4-one hydrobromide], the inhibition (in general, the share of the control response that was lost under treatment) at 0.01 µM was ~73% and the inhibition at 0.1 µM is ~77%.
For `O=C1NCN(c2ccc(F)cc2)C12CCN(CCCN(c1ccccc1)c1ccccc1)CC2` [Example 2, 8-[3-(Diphenylamino)propyl]-1-(4-fluorophenyl)-1,3,8-triazaspiro[4,5]decan-4-one], in that order: ~76% and ~85%.
On to `Cc1ccc(N2CNC(=O)C23CCN(CCCN(c2ccccc2)c2ccccc2)CC3)cc1` [Example 3, 8-[3-(Diphenylamino)propyl]-1-(4-methylphenyl)-1,3,8-triazaspiro[4,5]decan-4-one], for which the inhibition at 0.01 µM was ~71% and the inhibition at 0.1 µM was ~87%.
Take `COc1ccc(N2CNC(=O)C23CCN(CCCN(c2ccccc2)c2ccccc2)CC3)cc1` [Example 4, 8-[3-(Diphenylamino)propyl]-1-(4-methoxyphenyl)-1,3,8-triazaspiro[4,5]decan-4-one]: the inhibition at 0.01 µM was ~67% and the inhibition at 0.1 µM is ~98%.
The corresponding values for `O=C1NCN(c2ccc(F)cc2)C12CCN(CCCN(c1ccc(F)cc1)c1ccc(F)cc1)CC2` [Example 5, 8-[3-[Bis-(4-fluorophenyl)amino]propyl]-1-(4-fluorophenyl)-1,3,8-triazaspiro[4,5]decan-4-one] are ~84% and ~100%.
For `O=c1[nH]c2ccccc2n1C1CCN(CCCN(c2ccc(F)cc2)c2ccc(F)cc2)CC1` [Example 6, 1-(1[3-[Bis(4-fluorophenyl)amino]propyl]-4-piperidyl)-1,3-dihydro-2H-benzimidazol-2-one], the inhibition at 0.001 µM (1 n mole concentration) is ~50%. Further, the inhibition at 0.01 µM (10 n moles concentration) was ~78%.
For the compound `O=c1[nH]c2ccccc2n1C1=CCN(CCCN(c2ccc(F)cc2)c2ccc(F)cc2)CC1` [Example 7, 1-[1-[3-[Bis(4-fluorophenyl)amino]propyl]-1,2,3,6-tetrahydro-4-pyridinyl]-1,3-dihydro-2H-benzimidazol-2-one hydrochloride], the inhibition at 0.01 µM was ~22% and the inhibition at 0.1 µM is ~67%.
Turning to `Fc1ccc(N(CCCN2CCC(n3c(=S)[nH]c4ccccc43)CC2)c2ccc(F)cc2)cc1` [Example 8, 1-[1-(3-[Bis(4-fluorophenyl)amino]propyl)-4-piperidinyl]-1,3-dihydro-2H-benzimidazole-2-thione], the inhibition at 0.01 µM (10 n moles concentration) was ~28%. The inhibition at 0.1 µM (100 n moles concentration) is ~89%.
For `O=c1[nH]c2ccccc2n1C1CCN(CCCN(c2ccccc2)c2ccccc2)CC1` [Example 9, 1-[1-(3-(Diphenylamino]propyl)-4-piperidinyl]-1,3-dihydro-2H-benzimidazol-2-one hydrochloride], the inhibition at 0.01 µM is ~68% and the inhibition at 0.1 µM was ~91%.
Turning to `O=c1[nH]c2ccccc2n1C1CCN(CCCN(c2ccccc2)c2ccc([N+](=O)[O-])cc2)CC1` [Example 10, 1,3-Dihydro-1-[1-(3-[(4-nitrophenyl)phenylamino]propyl)-4-piperidinyl]-2H-benzimidazol-2-one hydrochloride], the inhibition at 0.01 µM is ~17% and the inhibition at 0.1 µM is ~75%.
`Cc1cccc(N(CCCN2CCC(n3c(=O)[nH]c4ccccc43)CC2)c2ccccc2)c1` [Example 11, 1,3-Dihydro-1-[1-(3-[(3-methylphenyl)phenylamino]propyl-4-piperidinyl]-2H-benzimidazol-2-one hydrochloride]: the inhibition at 0.01 µM (10 n moles concentration) is ~61%. Further, under “100 n moles concentration”, the inhibition at 0.1 µM is ~91%.
In the case of `Cc1cc2[nH]c(=O)n(C3CCN(CCCN(c4ccccc4)c4ccccc4)CC3)c2cc1C` [Example 13, 1-[1-(3-[Diphenylamino]propyl)-4-piperidiyl]-1,3-dihydro-5,6-dimethyl-2H-benzimidazol-2-one], the inhibition at 0.01 µM (10 n moles concentration) is ~53%. Where the note is “100 n moles concentration”, the inhibition at 0.1 µM was ~93%.
For the compound `O=c1[nH]c2ccccc2n1C1CCN(CCCN(c2ccc(F)cc2)c2ccccc2F)CC1` [Example 14, 1,3-Dihydro-1-[1-[3-[(4-fluorophenyl)-(2-fluorophenyl)amino]propyl]-4-piperidinyl]-2H-benzimidazol-2-one], under “1 n mole concentration”, the inhibition at 0.001 µM is ~56%. Also, the inhibition at 0.01 µM (10 n moles concentration) is ~92%. Also, the inhibition at 0.1 µM (100 n moles concentration) was ~100%.
As for `O=c1[nH]c2ccccc2n1C1CCN(CCCN(c2ccccc2)c2ccc(F)cc2)CC1` [Example 15, 1,3-Dihydro-1-[1-[3-[(4-fluorophenyl)phenylamino]propyl]-4-piperidinyl]-2H-benzimidazol-2-one], the inhibition at 0.01 µM (10 n moles concentration) is ~74%. For the same compound, for the setting “100 n moles concentration”, the inhibition at 0.1 µM was ~100%.
The corresponding values for `Cc1cc2c(cc1C)n(C1CCN(CCCN(c3ccccc3)c3ccccc3)CC1)c(=O)n2C` [Example 16, 1-[1-([3-Diphenylamino]propyl)-4-piperidinyl]-1,3-dihydro-3,5,6-trimethyl-2H-benzimidazol-2-one butenedioate] are ~6% and ~60%.
Consider `Cc1cc2[nH]c(=O)n(C3CCN(CCCN(c4ccc(F)cc4)c4ccc(F)cc4)CC3)c2cc1C` [Example 17, 1-[1-[3-[Bis-(4-fluorophenyl)amino]propyl]-4-piperidyl]-1,3-dihydro-5,6-dimethyl-2H-benzimidazol-2-one], for which the inhibition at 0.001 µM (1 n mole concentration) is ~29%. Moreover, the inhibition at 0.01 µM (10 n moles concentration) was ~85%. In addition, the inhibition at 0.1 µM (100 n moles concentration) is ~100%.
With `OC1(c2cccc(F)c2)CCN(CCCN(c2ccccc2)c2ccccc2)CC1` [Example 18, 1-[3-(Diphenylamino)propyl]-4-(3-fluorophenyl)-4-piperidinol ethanedioate], the inhibition at 0.01 µM is ~23% and the inhibition at 0.1 µM is ~83%.
`OC1(c2ccc(F)cc2)CCN(CCCN(c2ccc(F)cc2)c2ccc(F)cc2)CC1` [Example 19, 4-(4-Fluorophenyl)-1-(3-[bis(4-fluorophenyl)amino]propyl)-4-piperidinol hydrochloride]: the inhibition at 0.001 µM is ~25% and the inhibition at 0.01 µM is ~82%.
`OC1(c2ccc(Cl)cc2)CCN(CCCN(c2ccc(F)cc2)c2ccc(F)cc2)CC1` [Example 20, 1-(3-[Bis(4-fluorophenyl)amino]propyl)-4-(4-chlorophenyl)-4-piperidinol ethanedioate]: the inhibition at 0.01 µM was ~74% and the inhibition at 0.1 µM was ~100%.
Consider `C1=C(Oc2ccccc2)CCN(CCCN(c2ccccc2)c2ccccc2)C1` [Example 21, 3,6-Dihydro-4-phenoxy-N,N-diphenyl-1(2H)-pyridinepropanamine ethanedioate.], for which the inhibition at 0.01 µM (10 n moles concentration) was ~8%. In addition, the inhibition at 0.1 µM (100 n moles concentration) was ~48%.
Turning to `c1ccc(OC2CCN(CCCN(c3ccccc3)c3ccccc3)CC2)cc1` [Example 22, 4-Phenoxy-N,N-diphenyl-1-piperidinepropanamine ethanedioate], the inhibition at 0.01 µM is ~7% and the inhibition at 0.1 µM was ~59%.
`FC(F)(F)c1cccc(OC2=CCN(CCCN(c3ccccc3)c3ccccc3)CC2)c1` [Example 23, 3,6-Dihydro-N,N-diphenyl-4-[(3-trifluoromethyl)phenoxy]-1(2H)-pyridinepropanamine ethanedioate]: for the setting “10 n moles concentration”, the inhibition at 0.01 µM was ~6%. In addition, the inhibition at 0.1 µM (100 n moles concentration) was ~24%.
Consider `FC(F)(F)c1cccc(OC2CCN(CCCN(c3ccccc3)c3ccccc3)CC2)c1.O=C(O)C(=O)O` [Example 24, N,N-diphenyl-4-[3-(trifluoromethyl)phenoxy]-1-piperidinepropanamine ethanedioate], for which the inhibition at 0.1 µM is ~8%. Besides, the “inhibition of 3H-haloperidol binding” value (10 n moles concentration) was “no inhibition”.
Regarding `Fc1ccc(OC2=CCN(CCCN(c3ccc(F)cc3)c3ccc(F)cc3)CC2)cc1` [Example 25, 4-(4-Fluorophenoxy)-N,N-bis(4-fluorophenyl)-1,2,3,6-tetrahydro-1-pyridinepropanamine-d-2,3-dihydroxybutanedioate], the “inhibition of 3H-haloperidol binding” value (1 n mole concentration) is on record as “no inhibition”. The inhibition at 0.01 µM (10 n moles concentration) was ~43%.
On to `Clc1ccc(OC2=CCN(CCCN(c3ccccc3)c3ccccc3)CC2)cc1Cl.O=C(O)C(=O)O` [Example 26, 4-(3,4-Dichlorophenoxy)-3,6-dihydro-N,N-diphenyl-1(2H)-pyridinepropanamine ethanedioate], for which the inhibition at 0.1 µM is ~26%. The “inhibition of 3H-haloperidol binding” value (10 n moles concentration) is on record as “no inhibition”.
For `Fc1ccc(N2CCN(CCCN(c3ccccc3)c3ccccc3)CC2)cc1` [Example 31, 4-(4-Fluorophenyl)-N,N-diphenyl-1-piperazinepropanamine], the “inhibition of 3H-haloperidol binding” value (10 n moles concentration) is recorded as “no inhibition”. Moreover, the inhibition at 0.1 µM (100 n moles concentration) was ~12%.
Take `c1ccc(CN2CCN(CCCN(c3ccccc3)c3ccccc3)CC2)cc1` [Example 32, N,N-diphenyl-4-(phenylmethyl)-1-piperazinepropanamine ethanedioate]: the inhibition at 0.01 µM is ~16% and the inhibition at 0.1 µM is ~33%.
Turning to `CC(C)Sc1ccccc1N1CCN(CCCN(c2ccccc2)c2ccccc2)CC1.Cl` [Example 33, 4-[2-[(1-Methylethyl)thio]phenyl]-N,N-diphenyl-1-piperazinepropanamine hydrochloride], the inhibition at 0.1 µM is ~28%. For the same compound, where the note is “10 n moles concentration”, the “inhibition of 3H-haloperidol binding” value was “no inhibition”.
Turning to `CCCSc1ccccc1N1CCN(CCCN(c2ccccc2)c2ccccc2)CC1` [Example 34, N,N-diphenyl-4-[2-(propylthio)phenyl]-1-piperazinepropanamine ethanedioate], the inhibition at 0.01 µM was ~6% and the inhibition at 0.1 µM is ~64%.
